# Test results taken from US6764829B2, “Nucleoside hydrolase and nucleoside phosphorylase detection kits, dipsticks and substrates” (Albert Einstein College of Medicine of Yeshiva University, priority 1996, dated 2004).
# Like-named read-outs stand apart in the source and are kept apart here.
# What was measured:
# IU-nucleoside hydrolase [1] = molecular target: T1, IU-nucleoside hydrolase (Crithidia fasciculata, UniProt Q27546); experiment: Comparison of β-D-ribofuranoside substrates with IU-nucleoside hydrolase (Table 3); format: biochemical
# T1 sequence (Q27546 1-315): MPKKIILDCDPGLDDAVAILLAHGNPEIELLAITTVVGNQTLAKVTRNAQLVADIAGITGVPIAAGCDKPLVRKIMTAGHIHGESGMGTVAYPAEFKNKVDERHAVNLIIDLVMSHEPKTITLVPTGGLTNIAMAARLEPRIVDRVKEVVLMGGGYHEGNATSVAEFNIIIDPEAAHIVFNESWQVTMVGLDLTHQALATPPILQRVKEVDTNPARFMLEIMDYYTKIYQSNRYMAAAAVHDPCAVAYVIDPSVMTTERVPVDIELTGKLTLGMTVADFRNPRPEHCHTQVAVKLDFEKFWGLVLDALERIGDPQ
# Procedure: (§1) The enzymes used were highly purified samples from Crithidia fasciculata (IU-nucleoside hydrolase) and Trypanosoma brucei brucei (IAG-nucleoside hydrolase), available as stock solutions of approximately 20 mg protein/mL.
# (§2) Each reaction was conducted in a quartz cuvette with a 1 cm path length, placed in the observation chamber of a UV spectrophotometer, and in a total reaction volume of 600 μL. The temperature was adjusted by use of a circulating water bath, set so that the cuvette temperature equilibrated to 30° C. in about 5 minutes.
# (§3) The β-D-ribofuranoside substrates were dissolved in aqueous buffer: 50 mM CHES for reactions at pH 10, 50 mM HEPES for reactions at pH 8. […] For the remaining reactions catalysed by IAG hydrolase, a single substrate concentration of between 100 and 300 μM was used.
# (§4) The absorbance of each reaction mixture was monitored at or near the absorption maximum for the phenolic aglycon (as shown in Table 3). Monitoring began 5-10 minutes before the enzyme was added to determine if the substrate was stable under the reaction conditions.
# (§5) Data were fitted to the Michaelis-Menton equation using kaleidagraph, and the resulting kinetic parameters along with other relevant data are summarized in Table 3.
# IAG-nucleoside hydrolase [2] = molecular target: T2, IAG-nucleoside hydrolase (Trypanosoma brucei, UniProt Q57ZL6); experiment: Comparison of β-D-ribofuranoside substrates with IAG-nucleoside hydrolase (Table 3); format: biochemical; conditions: for IAG NH rate: at 200 μM substrate
# T2 sequence (Q57ZL6 1-327): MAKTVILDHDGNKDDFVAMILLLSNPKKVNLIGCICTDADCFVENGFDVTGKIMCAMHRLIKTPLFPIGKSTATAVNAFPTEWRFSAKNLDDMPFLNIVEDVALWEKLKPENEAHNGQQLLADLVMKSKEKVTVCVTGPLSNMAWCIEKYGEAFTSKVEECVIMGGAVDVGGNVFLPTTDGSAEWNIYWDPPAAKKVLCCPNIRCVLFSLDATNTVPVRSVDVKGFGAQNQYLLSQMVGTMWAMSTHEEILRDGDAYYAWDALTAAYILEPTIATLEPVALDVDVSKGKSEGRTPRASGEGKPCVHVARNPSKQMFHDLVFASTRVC
# Procedure: as §1, §2, §3, §4, §5
# [3] = Stability of substrate under the reaction conditions before enzyme was added; format: physicochemical; conditions: pH 10, 30° C., monitored 5-10 minutes before the enzyme was added
# Procedure: as §4
# AMP nucleosidase [4] = molecular target: T3, AMP nucleosidase (Escherichia coli, UniProt P0AE12); conditions: purine substrate; cited from earlier work
# T3 sequence (P0AE12 whole entry): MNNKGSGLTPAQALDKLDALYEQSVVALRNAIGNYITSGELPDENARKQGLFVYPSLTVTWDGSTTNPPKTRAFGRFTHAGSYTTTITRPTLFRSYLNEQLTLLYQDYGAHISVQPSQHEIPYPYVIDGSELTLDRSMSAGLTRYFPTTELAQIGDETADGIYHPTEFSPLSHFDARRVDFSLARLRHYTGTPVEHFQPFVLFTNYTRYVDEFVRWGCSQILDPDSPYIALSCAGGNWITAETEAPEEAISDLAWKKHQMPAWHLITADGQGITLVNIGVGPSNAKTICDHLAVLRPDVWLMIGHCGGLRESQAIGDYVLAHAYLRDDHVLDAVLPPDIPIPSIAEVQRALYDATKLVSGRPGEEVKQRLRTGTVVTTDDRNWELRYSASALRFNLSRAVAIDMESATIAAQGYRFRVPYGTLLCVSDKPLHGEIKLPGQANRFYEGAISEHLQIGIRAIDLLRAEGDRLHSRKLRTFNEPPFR
# GI-nucleoside hydrolase [5] = conditions: purine substrate; cited from earlier work
# IAG-nucleoside hydrolase [6] = molecular target: T2, IAG-nucleoside hydrolase; experiment: Kinetic parameters with nitrophenylriboside and purine substrate (Table 1); format: biochemical
# Source text: (§6) In this Example kinetic parameters for different enzymes were compared using nitrophenylriboside or a purine substrate. […] The E. coli and bovine spleen enzymes tested were ineffective in hydrolysing the substrate. The striking ability of one of the protozoan parasite enzymes to hydrolyse the substrate provides the basis for an assay for the protozoan parasites (see Example 22).
# IU-nucleoside hydrolase [7] = molecular target: T1, IU-nucleoside hydrolase; experiment: as above; format: biochemical
# Source text: as §6
# GI-nucleoside hydrolase [8] = experiment: as above; format: biochemical, Crithidia fasciculata
# Source text: as §6
# AMP nucleosidase [9] = molecular target: T3, AMP nucleosidase; experiment: Kinetic parameters with nitrophenylriboside 5-phosphate and purine substrate (Table 1); format: biochemical, E coli; conditions: summary of Table 1
# Source text: as §6
# [10] = tested on: blood from mice infected with Trypanosoma cruzi; experiment: Rate of hydrolysis of nitrophenyl riboside with control or infected mouse blood; format: biochemical; conditions: for rate of hydrolysis: 0.24 mM substrate, 50 mM HEPES pH 8.0, 30° C., 400 nm
# Procedure: The utility of nitrophenylriboside as a substrate for detecting protozoan infections using the presence of nucleoside hydrolases was tested using blood from mice infected with Trypanosoma cruzi, the causitive agent of Chagas disease (Table 2). […] The values obtained from the assay from the infected mice were strikingly elevated above those of the uninfected controls.
# [11] = tested on: Giardia intestinalis (Portland 1 strain); experiment: Hydrolysis of substrates by Giardia intestinalis supernatants; format: biochemical; conditions: 0.24 mM substrate, 50 mM HEPES pH 8
# Procedure: Giardia intestinalis (Portland 1 strain) was grown for 2 days in TYI-33 medium supplemented with 5 mM arginine, harvested and washed. A suspension containing 2.91×10^8 cells of Giardia intestinalis in 1 mL of aqueous HEPES buffer (40 mM. pH 7) was mixed with 1 mL of aqueous HEPES buffer (40 mM, pH 7) containing 0.1 mM protease inhibitor E-64 and sonicated (Branson sonicator, duty cycle 40, output 2.5), for 2-3 min in ice. The suspension was then centrifuged in a Beckman microfuge for 10 mins at 4° C., and the supernatant decanted.
# A second suspension of 2.91×10^8 cells of Giardia intestinalis in 1 mL of aqueous HEPES buffer (40 mM, pH 7) was mixed with 1 mL of 0.5% aqueous Triton X-100, left at 4° C. overnight, and the supernatant was decanted.
# Aliquots (between 2 and 100 μL) of each of these supernatants were made up to a volume of 1 mL of water containing 50 mM HEPES buffer at pH 8, 0.24 mM 4-nitrophenyl β-D-ribofuranoside or 4-pyridyl β-D-ribofuranoside. The release of the aglycon was monitored by absorption spectrometry at 400 nm or 253 nm, respectively.
# Protein was determined by Lowry method (ie Folin reaction).
# T. vaginalis = experiment: Hydrolysis of substrates by T. vaginalis extract; format: biochemical; conditions: Triton X-100 extract; determined as in Example 24
# Procedure: T. vaginalis was grown for 2 days in TYM medium, harvested, and washed. […] The ability of the extract to hydrolyse substrates was determined as in Example 24. For 4-nitrophenyl β-D-ribofuranoside, the activity was 165 nmoles.min^−1 per 10^8 cells, corresponding to an activity for the enzyme of 9 nmoles.min^−1.(mg protein)^−1. For 4-pyridyl β-D-ribofuranoside, the activity was 74 nmoles.min^−1 per […] corresponding to an activity for the enzyme of 4 nmoles.min^−1.(mg protein)^−1.
# [12] = molecular target: T4, Purine nucleoside phosphorylase (Bos taurus, UniProt P55859); experiment: Kinetic parameters (phosphorolysis) with nitrophenylriboside and purine substrate (Table 1); format: biochemical, bovine; parameters: The E. coli and bovine spleen enzymes tested; from tissue; host or cells: bovine spleen
# T4 sequence (P55859 1-289): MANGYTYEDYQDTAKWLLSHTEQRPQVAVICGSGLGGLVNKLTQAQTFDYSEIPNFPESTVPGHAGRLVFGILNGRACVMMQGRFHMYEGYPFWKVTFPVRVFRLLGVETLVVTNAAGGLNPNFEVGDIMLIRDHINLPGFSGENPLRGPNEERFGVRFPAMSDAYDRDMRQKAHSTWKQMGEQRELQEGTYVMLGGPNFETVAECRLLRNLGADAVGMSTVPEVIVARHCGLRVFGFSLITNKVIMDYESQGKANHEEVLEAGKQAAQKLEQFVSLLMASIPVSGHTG
# Source text: as §6
# IU-nucleoside hydrolase [13] = molecular target: T1, IU-nucleoside hydrolase; conditions: purine substrate; cited from earlier work
# IAG-nucleoside hydrolase [14] = molecular target: T2, IAG-nucleoside hydrolase; conditions: purine substrate; cited from earlier work
# [15] = molecular target: T4, Purine nucleoside phosphorylase; parameters: bovine spleen enzymes tested; from tissue; host or cells: bovine spleen; conditions: purine substrate; cited from earlier work
# [16] = listed as 2-(5-nitropyridyl) riboside
# [17] = kcat/Km for nitrophenylriboside to that for inosine
# [18] = nitrophenylriboside as substrate, pH 8.0 in 50 mM HEPES, 30° C.
smiles,measurement,setting,value
"O=[N+]([O-])c1ccc(O[C@@H]2O[C@H](CO)[C@@H](O)[C@H]2O)nc1 [Example 13, 2-(5-nitropyridyl) β-D-ribofuranoside]",substrate quality in words,IU-nucleoside hydrolase [1],good substrates
same,IU NH kcat,"IU-nucleoside hydrolase [1]; At pH 10, 30° C.",100 s⁻¹
same,Km,"IU-nucleoside hydrolase [1]; At pH 10, 30° C., read-out: IU NH Km",122 µM
same,substrate quality in words,IU-nucleoside hydrolase [1]; [16],lower activity
same,substrate quality in words,IAG-nucleoside hydrolase [2],good substrates
same,IAG NH rate,IAG-nucleoside hydrolase [2]; pH 8.0,>100 min⁻¹
same,IAG NH rate,IAG-nucleoside hydrolase [2]; pH 10.0,>100 min⁻¹
same,substrate quality in words,IAG-nucleoside hydrolase [2]; [16],substantially greater activity
same,hydrolysis in the absence of enzyme,[3],hydrolysis observed in the absence of enzyme
Nc1ncnc2c1ncn2[C@@H]1O[C@H](COP(=O)(O)O)[C@@H](O)[C@H]1O [AMP],Km,AMP nucleosidase [4],150 µM
same,kcat,AMP nucleosidase [4],27 s⁻¹
Nc1nc2c(ncn2[C@@H]2O[C@H](CO)[C@@H](O)[C@H]2O)c(=O)[nH]1 [guanosine],Km,GI-nucleoside hydrolase [5],77 µM
same,kcat,GI-nucleoside hydrolase [5],231 s⁻¹
"O=[N+]([O-])c1ccc(O[C@@H]2O[C@H](CO)[C@@H](O)[C@H]2O)cc1 [Example 1, p-nitrophenyl β-D-ribofuranoside]",kcat/Km ratio,IAG-nucleoside hydrolase [6]; [17],8 × 10^−4
same,substrate quality in words,IAG-nucleoside hydrolase [6]; summary of Table 1,relatively poor
same,kcat/Km ratio,IU-nucleoside hydrolase [7]; [17],54
same,substrate quality in words,IU-nucleoside hydrolase [7]; summary of Table 1,good substrate
same,kcat/Km ratio,GI-nucleoside hydrolase [8]; kcat/Km for nitrophenylriboside to that for guanosine,4 × 10^−5
same,Km,GI-nucleoside hydrolase [8]; [18],468 µM
same,kcat,GI-nucleoside hydrolase [8]; [18],0.07 s⁻¹
same,substrate quality in words,AMP nucleosidase [9],ineffective
same,detection of nucleoside hydrolase in words,[10]; blood lysate prepared from one microliter of infected blood,readily detects the presence of the nucleoside hydrolase
same,rate of hydrolysis,"[10]; mouse blood infected, T cruzi var Brazil",4.6 ± 0.5 (3) pmol/min/mg
same,rate of hydrolysis,"[10]; mouse blood infected, T cruzi var Tulahuen",3.9 ± 0.5 (4) pmol/min/mg
same,rate of hydrolysis,[10]; uninfected control mouse blood,0.7 ± 0.8 (11) pmol/min/mg
same,substrate quality in words,IU-nucleoside hydrolase [1],good substrates
same,substrate quality in words,IU-nucleoside hydrolase [1]; listed as p-nitrophenylriboside,particularly good substrate
same,IAG NH rate,IAG-nucleoside hydrolase [2]; pH 10.0,0.05 min⁻¹
same,activity per cells,[11],470 nmoles.min^−1 per 10^8 cells
same,activity for the enzyme,[11]; protein by Lowry method,70 nmoles.min^−1.(mg protein)^−1
same,activity for the enzyme,T. vaginalis,9 nmoles.min^−1.(mg protein)^−1
same,activity per cells,T. vaginalis,165 nmoles.min^−1 per 10^8 cells
same,kcat/Km ratio,[12]; [17],1 × 10^−6
same,substrate quality in words,[12]; summary of Table 1,ineffective
OC[C@H]1O[C@@H](n2cnc3c(O)ncnc32)[C@H](O)[C@@H]1O [inosine],kcat,IU-nucleoside hydrolase [13],28 s⁻¹
same,Km,IAG-nucleoside hydrolase [14],18 µM
same,kcat,IAG-nucleoside hydrolase [14],34 s⁻¹
same,Km,[15],19 µM
same,kcat,[15],12 s⁻¹
